Assay results from ChEMBL document CHEMBL1147492, “Small molecule biaryl FSH receptor agonists. Part 1: Lead discovery via encoded combinatorial synthesis” (Bioorg Med Chem Lett, 2004).

Molecular target: T1, Follicle-stimulating hormone receptor (Homo sapiens, UniProt P23945)
T1 sequence (P23945 whole entry): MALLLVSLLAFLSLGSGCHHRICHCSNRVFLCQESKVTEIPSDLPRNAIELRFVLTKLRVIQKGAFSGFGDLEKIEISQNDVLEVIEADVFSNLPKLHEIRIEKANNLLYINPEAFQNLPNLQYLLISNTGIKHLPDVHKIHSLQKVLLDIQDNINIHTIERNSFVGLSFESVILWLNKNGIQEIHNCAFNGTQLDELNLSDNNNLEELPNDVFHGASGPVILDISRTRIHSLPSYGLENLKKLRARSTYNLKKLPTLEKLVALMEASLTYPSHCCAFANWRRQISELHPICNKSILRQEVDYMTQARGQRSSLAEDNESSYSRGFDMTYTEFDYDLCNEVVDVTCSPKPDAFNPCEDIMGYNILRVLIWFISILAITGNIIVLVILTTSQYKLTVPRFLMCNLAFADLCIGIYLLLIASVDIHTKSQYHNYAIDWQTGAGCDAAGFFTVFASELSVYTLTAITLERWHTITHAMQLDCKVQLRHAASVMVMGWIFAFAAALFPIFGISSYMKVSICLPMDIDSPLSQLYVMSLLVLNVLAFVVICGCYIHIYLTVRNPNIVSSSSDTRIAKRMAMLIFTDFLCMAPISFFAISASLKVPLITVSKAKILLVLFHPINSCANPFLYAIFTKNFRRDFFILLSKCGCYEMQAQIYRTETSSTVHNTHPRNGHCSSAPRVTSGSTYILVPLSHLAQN
Assay: Agonistic activity against Follicle stimulating hormone receptor expressed in chinese hamster ovary cells(CHO)
Assay type: functional, cell-based

| SMILES | EC50 [nM] |
| --- | --- |
| CCCCCCNC(=O)CN1C(=O)C(Cc2ccc(-c3ccc(CN(CCCC)C(=O)NC)cc3)cc2)N(C)C1=O (stereo not given) | 2500 |
| CCCCCNC(=O)CN1CC(=O)N(C)[C@@H](Cc2ccc(-c3cccc(CN(CCCC)C(=O)NC)c3)cc2)C1=O | 1700 |
| CCCCOC(=O)N(CC(=O)NCC1CC1)Cc1ccc(-c2ccccc2CN(CCCC)C(C)=O)cc1 | 3900 |

Continued, values first:

| EC50 [nM] | SMILES |
| --- | --- |
| 3000 | CCCCCCNC(=O)CN1CC(=O)N(C)[C@@H](Cc2ccc(-c3cc(OC)c(OC)c(OC)c3)cc2)C1=O |
| 260 | CCCCN(Cc1cccc(-c2ccc(C(=O)NC3CCCCN(CC(=O)NCCc4ccc(Cl)cc4)C3=O)cc2)c1)C(=O)NC (stereo not given) |
